From PMC8815882, “Screening the pandemic response box identified benzimidazole carbamates, Olorofim and ravuconazole as promising drug candidates for the treatment of eumycetoma” (PLoS Neglected Tropical Diseases, 2022)
Where two headings read alike, the source gives them in different places.

Test system: M. mycetomatis genome strain MM55
Assay: CLSI M38-A2 based in vitro susceptibility screening (XTT or resazurin), growth at fixed concentration
Type: cell-based, Madurella mycetomatis
Conditions: Madurella mycetomatis; for Percent fungal survival at 100 µM: replicate 2, read-out: Percentage survival at 100um, 100 uM A (second replicate column)
[1] = mean of three replicates, read-out: Percentage survival at 25um, 25 uM mean
[2] = replicate A, read-out: Percentage survival at 25um, 25 um A
[3] = replicate B, read-out: Percentage survival at 25um, 25 uM B
[4] = replicate C, read-out: Percentage survival at 25um, 25 uM C
[5] = mean of three replicates, read-out: Percentage survival at 100um, 100 uM mean
[6] = replicate 1, read-out: Percentage survival at 100um, 100 uM A (first replicate column)
[7] = replicate 3, read-out: Percentage survival at 100um, 100 uM A (third replicate column)
[8] = mean of replicates, MM55, read-out: Percentage survival at 25um, 25 uM mean
[9] = replicate A, MM55, read-out: Percentage survival at 25um, 25 um A
[10] = replicate B, MM55, read-out: Percentage survival at 25um, 25 uM B
[11] = replicate C, MM55, read-out: Percentage survival at 25um, 25 uM C
[12] = mean of replicates, MM55, read-out: Percentage survival at 100um, 100 uM mean
[13] = replicate 1, MM55, read-out: Percentage survival at 100um, 100 uM A
[14] = replicate 2, MM55, read-out: Percentage survival at 100um, 100 uM A
[15] = replicate 3, MM55, read-out: Percentage survival at 100um, 100 uM A
[16] = mean, read-out: Percentage survival at 25um, 25 uM mean
[17] = mean, read-out: Percentage survival at 100um, 100 uM mean
[18] = replicate (first column), read-out: Percentage survival at 100um, 100 uM A
[19] = replicate (second column), read-out: Percentage survival at 100um, 100 uM A
[20] = replicate (third column), read-out: Percentage survival at 100um, 100 uM A

| SMILES | activity at 25 µM [2] | activity at 25 µM [3] | activity at 25 µM [4] | activity at 25 µM [8] | activity at 25 µM [9] | activity at 25 µM [10] | activity at 25 µM [11] | activity at 100 µM [12] | activity at 100 µM [13] | activity at 100 µM [14] | activity at 100 µM [15] | activity at 25 µM [16] | activity at 100 µM [17] | activity at 100 µM [18] | activity at 100 µM [19] | activity at 100 µM [20] | other results |
| --- | --- | --- | --- | --- | --- | --- | --- | --- | --- | --- | --- | --- | --- | --- | --- | --- | --- |
| COc1ccc2sc3c(c2c1)NC(C)CNC3=O (stereo not drawn) [MMV1782115] | 57.6% | 74.6% | 27.1% | – | – | – | – | – | – | – | – | – | – | – | – | – | activity at 25 µM [1]: 53.1%; activity at 100 µM [5]: -0.834%; activity at 100 µM [6]: -3.17%; Percent fungal survival at 100 µM: -0.401%; activity at 100 µM [7]: 1.07% |
| CN1C(=O)C(c2ccccc2)C(=O)N(c2ccccc2)c2cc(C(F)(F)F)ccc21 (stereo not drawn) [MMV1782208] | – | – | – | 99.7% | 120% | 99.1% | 80.3% | 90.1% | 94.2% | 97.9% | 78.1% | – | – | – | – | – | – |
| COc1ccc(C(C)(C)C)cc1NC(=O)C(=O)c1ccc(OCCN2CCOCC2)c2ccccc12 [MMV1782209] | – | – | – | 96.3% | 102% | 99.5% | 87.2% | 91.3% | 102% | 86% | 85.7% | – | – | – | – | – | – |
| Nc1nc2c(ncn2/C=C2/CC2(CO)CO)c(=O)[nH]1 [MMV1782210] | – | – | – | 94.9% | 102% | 100% | 83.3% | 81.8% | 89.9% | 79.8% | 75.6% | – | – | – | – | – | – |
| C[C@@H](NC(=O)c1cccc(-c2c[nH]c(-c3cc4ccccc4cn3)n2)c1)c1ccc(F)cc1 [MMV1782211] | – | – | – | 77% | 80.9% | 86% | 64.2% | 70% | 78.5% | 73.3% | 58.3% | – | – | – | – | – | – |
| CC(C)(C)c1ccc(C(=O)NC(=O)N2CCCc3ccccc32)cc1 [MMV1782212] | 90.3% | 74.4% | 70.6% | – | – | – | – | – | – | – | – | 78.4% | 81.3% | 68.7% | 79.3% | 95.8% | – |
| O=C(CSc1nnc(Br)n1-c1ccc(C2CC2)c2ccccc12)Nc1ccc(C(=O)O)cc1Cl [MMV1782213] | – | – | – | 81% | 93.7% | 82% | 67.3% | 74.5% | 63.5% | 115% | 45.2% | – | – | – | – | – | – |
| C=CCN(C(=O)OCc1ccc([N+](=O)[O-])cc1)C1CCN(CC[C@](C)(CN(C)S(=O)(=O)c2ccccc2)c2ccccc2)CC1 [MMV1782214] | – | – | – | 69.4% | 79.7% | 66.7% | 61.9% | 62.1% | 55.9% | 76.9% | 53.4% | – | – | – | – | – | – |
| O=P(O)(O)C(CCCc1cccc(Oc2ccccc2)c1)S(=O)(=O)O (stereo not drawn) [MMV1782215] | 82.3% | 68.2% | 56.8% | – | – | – | – | – | – | – | – | – | – | – | – | – | activity at 25 µM [1]: 69.1%; activity at 100 µM [5]: 68.9%; activity at 100 µM [6]: 79.5%; Percent fungal survival at 100 µM: 65.1%; activity at 100 µM [7]: 62% |
| CCCNc1ccc(S(=O)(=O)Nc2cc(C)on2)cc1 [MMV1782216] | 81.9% | 68.5% | 77.2% | – | – | – | – | – | – | – | – | 75.9% | 87.1% | 83.4% | 74.1% | 104% | – |
| Cc1cc(NS(=O)(=O)c2ccc(-c3ccc(F)cc3F)cc2)no1 [MMV1782217] | 76.3% | 79.1% | 81.1% | – | – | – | – | – | – | – | – | 78.8% | 93.7% | 83.4% | 76.4% | 121% | – |
| O=C(NC(=O)N1CCCc2ccccc21)c1ccc(Cl)cc1Cl [MMV1782218] | 84.5% | 82% | 66.6% | – | – | – | – | – | – | – | – | 77.7% | 59.4% | 65.3% | 55.7% | 57.2% | – |
